According to ChEMBL document CHEMBL5465560, “Selectivity Literature for EUbOPEN Chemogenomic Library” (2024):
Numbering of substitutions follows the chain as printed.

Experiments:
Settings in all cases: at 10 µM
[1] = molecular target: Receptor-type tyrosine-protein kinase FLT3 (Homo sapiens) (UniProt P36888); test: (§1) Selectivity interaction (KinomeScan (DiscoverX)) EUB0000666a FLT3
[2] = system: T1, Receptor-type tyrosine-protein kinase FLT3 (Homo sapiens), P36888 [N841I]; test: as §1
T1 sequence (whole entry): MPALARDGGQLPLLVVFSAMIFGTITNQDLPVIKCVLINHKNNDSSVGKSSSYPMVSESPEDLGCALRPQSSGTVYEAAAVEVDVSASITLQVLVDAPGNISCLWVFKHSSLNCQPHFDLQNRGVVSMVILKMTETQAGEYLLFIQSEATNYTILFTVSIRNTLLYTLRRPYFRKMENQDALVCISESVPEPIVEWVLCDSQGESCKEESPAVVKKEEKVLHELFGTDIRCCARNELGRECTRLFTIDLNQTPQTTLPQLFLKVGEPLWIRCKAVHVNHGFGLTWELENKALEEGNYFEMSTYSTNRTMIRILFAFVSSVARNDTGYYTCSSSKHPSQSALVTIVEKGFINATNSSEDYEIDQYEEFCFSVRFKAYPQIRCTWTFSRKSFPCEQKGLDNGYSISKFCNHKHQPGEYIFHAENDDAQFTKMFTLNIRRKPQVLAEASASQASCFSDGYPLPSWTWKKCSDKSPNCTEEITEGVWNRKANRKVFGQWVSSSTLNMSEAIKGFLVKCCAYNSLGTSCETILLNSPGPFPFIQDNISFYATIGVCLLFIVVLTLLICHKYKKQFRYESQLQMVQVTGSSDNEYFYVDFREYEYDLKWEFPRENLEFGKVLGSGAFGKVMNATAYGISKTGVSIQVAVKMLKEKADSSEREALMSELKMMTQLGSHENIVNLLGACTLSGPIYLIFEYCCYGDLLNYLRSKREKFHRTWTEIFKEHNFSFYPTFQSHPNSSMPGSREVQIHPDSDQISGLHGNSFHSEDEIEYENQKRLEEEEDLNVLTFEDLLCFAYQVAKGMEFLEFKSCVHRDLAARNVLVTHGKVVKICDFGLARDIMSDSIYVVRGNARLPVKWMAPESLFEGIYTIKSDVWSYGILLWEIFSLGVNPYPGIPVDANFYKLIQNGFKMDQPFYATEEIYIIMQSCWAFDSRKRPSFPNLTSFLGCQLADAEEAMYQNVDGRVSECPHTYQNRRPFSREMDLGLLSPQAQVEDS

[3] = system: T2, Receptor-type tyrosine-protein kinase FLT3 (Homo sapiens), P36888 [D835H]; test: as §1
T2 sequence (whole entry): T1 sequence (whole entry) with D835H, I841N

[4] = system: T3, Receptor-type tyrosine-protein kinase FLT3 (Homo sapiens), P36888 [D835Y]; test: as §1
T3 sequence (whole entry): T1 sequence (whole entry) with D835Y, I841N

[5] = molecular target: Calcium/calmodulin-dependent protein kinase type II subunit alpha (Homo sapiens, UniProt Q9UQM7)
Calcium/calmodulin-dependent protein kinase type II subunit alpha, sequence (Q9UQM7 whole entry): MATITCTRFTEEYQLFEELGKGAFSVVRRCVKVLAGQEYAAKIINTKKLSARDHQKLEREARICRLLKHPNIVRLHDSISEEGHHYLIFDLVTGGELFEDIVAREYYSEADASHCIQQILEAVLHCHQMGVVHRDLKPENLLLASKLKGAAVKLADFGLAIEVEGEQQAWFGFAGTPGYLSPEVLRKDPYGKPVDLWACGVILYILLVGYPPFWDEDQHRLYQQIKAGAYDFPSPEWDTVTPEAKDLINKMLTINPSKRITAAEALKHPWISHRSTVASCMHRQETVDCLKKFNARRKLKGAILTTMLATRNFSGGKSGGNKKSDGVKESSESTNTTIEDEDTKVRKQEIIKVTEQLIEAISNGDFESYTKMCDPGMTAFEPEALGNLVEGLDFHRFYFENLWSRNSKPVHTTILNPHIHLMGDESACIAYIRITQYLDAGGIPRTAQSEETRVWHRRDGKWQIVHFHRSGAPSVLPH

Question: Which % of control [1] does the source give for `O=C(NOC[C@H](O)CO)c1ccc(F)c(F)c1Nc1ccc(I)cc1F` here?
Answer: 82%

Question: What about the % of control [2] of the same molecule?
Answer: 78%

Question: What about the % of control [3] of the same molecule?
Answer: 87%

Question: What about the % of control [4] of the same molecule?
Answer: 100%

Question: With `CCN(CC)CCCCNc1ncc2cc(-c3cc(OC)cc(OC)c3)c(NC(=O)NC(C)(C)C)nc2n1` as the molecule, how does the % of control [5] read?
Answer: 100%
